The values below come from US8410116B2, “Bis(styryl)pyrimidine or bis(styryl)benzene compounds, pharmaceutically acceptable salts thereof, preparation method thereof, and pharmaceutical composition for prevention or treatment of diseases featuring amyloids comprising the same as an active ingredient” (Korea Institute of Science and Technology, priority 2009, dated 2013).

Data set [1] concerns beta amyloid (1-42) injected mice. The experiment in a line: Y-maze task, acute Alzheimer's disease model. Type of data set: in vivo. Conditions: mice i.c.v. injected with beta amyloid (1-42), compounds administered for 2 days, test on Day 2. The procedure: (§1) Mice 4-5 weeks old, each weighing 20˜25 g, were divided into groups of six. Intracerebroventricular injection was performed with a 50 μl Hamilton microsyringe fitted with a disposable 26-gauge needle as described by Laursen and Belknap (Laursen & Belknap, J. Pharmacol. Methods. 1986, 16, 355). It was inserted 2.4 mm deep into the bregma. All samples were administered to groups of 10 via oral routes or food pellets. After the intracerebroventricular injection, the compounds of the present invention were administered for 2 days to the mice which were then subjected to the Y-maze test on Day 2, the cognition test on Days 2 and 3, the passive avoidance test on Days 3 and 4, and the water maze test on Days 3 to 7. All data were averages of 6 measurements (mice).
(§2) Short-term memory was assessed by spontaneous alternation behavior in the Y-maze task. Spontaneous alternation behavior is considered to reflect spatial working memory, which is a form of short-term memory. A mouse was placed in one arm of a Y-maze and allowed to freely pass the three arms for 8 min. Spontaneous alternation behavior was defined as successive entries into the three arms. Percentage spontaneous alternation was calculated as the ratio of actual to possible alternations […], multiplied by 100.

The subject of data set [2] is HT-22 cells incubated with beta amyloid (Aβ25-35). The experiment in a line: Alleviating effect on beta amyloid toxicity in HT-22 cells (MTT). The data set is classed as cell-based, murine. To be noted: Mus musculus, compound pre-incubated 1 hr, then 25 μM beta amyloid (Aβ25-35) for 18 hrs, Aβ25-35 line = toxin alone, read-out: Cell Survival (%). The procedure:
(§3) The murine hippocampal neuronal cell line HT-22 was incubated at 37° C. in DMEM (Dulbecco's Modified Eagle's Medium) supplemented with 10% FBS (fetal bovine serum) and 1% penicillin/streptomycin in a 5% CO2 incubator. Before testing, HT-22 cells were seeded at a density of 5×10^3 cells/well onto 96-well plates containing serum-free DMEM and incubated for 1 hr. Afterwards, each of the compounds of Examples 1 to 27 was added at a concentration of 25 μM to each well before incubation for 18 hrs. 5 mg/ml MTT (3-(4,5-dimethyl-2-thiozolyl)-2,5-diphenyl-2H-tetrazolium bromide) solution was added in an amount of 15 μl per well and incubated for 4 hrs. A solubilization solution (10% SDS, 50% dimethylformamide, pH 4.7) was added in an amount of 100 μl to each well, followed by incubation for 18 hrs. Absorbance at 570 nm/630 nm was read on a microplate reader.
The following experiment was performed in order to examine the ability of the compounds of the Examples in accordance with the present invention to alleviate beta amyloid toxicity. HT-22 cells were cultured and incubated with the compounds of Examples 1 to 27 for 1 hr in the same manner as in Example 2. Cell necrosis was induced by beta amyloid toxicity. For this, the cells were incubated with 25 μM of beta amyloid (Aβ25-35) for 18 hrs. Subsequently, a 5 mg/ml MTT solution was added in an amount of 15 μl to each well, followed by incubation for 4 hrs. Then, the cells were again incubated for 18 hrs with 100 μl/well of the solubilization solution. Absorbance at 570 nm/630 nm was read on a microplate reader.

For data set [3], the system named is HT-22 cells. The experiment in a line: Cytotoxicity in HT-22 cell (MTT). To be noted: compound 25 μM, 18 hrs. The data set is classed as cell-based, murine. As for the experimental part: The following experiment was performed with HT-22 cells in order to examine the cytotoxicity of the compounds of the Examples in accordance with the present invention.
as §3

The subject of data set [4] is beta amyloid (1-42) injected mice. The experiment in a line: Passive avoidance test, acute Alzheimer's disease model. Type of data set: in vivo. Set-up: Passive Avoidance % of control: concentration or dose not given beside the values. To be noted: for Passive Avoidance % of control: latency relative to control mice; for Passive Avoidance Latency: mice i.c.v. injected with beta amyloid (1-42), test on Days 3 and 4, 24 hours after training. The procedure:
as §1
(§4) A passive avoidance test was performed as described in the literature (Song et al. J. Neurochem., 1998, 71, 875). Used was a passive avoidance box which was divided into two compartments: a lighted one and a dark one, separated by an automatic guillotine door. For training, mice were placed in the lighted compartment and electrically shocked with 0.25 mA for 1 sec whenever they entered the darkened compartment. 24 hours after training, the mice were placed in the lighted compartment and measured for latency time before entering the darkened compartment.

Data set [5] addresses beta amyloid (1-42) (Homo sapiens, UniProt P05067). The experiment in a line: Inhibitory activity against beta amyloid fibril formation (ThT fluorescence). Type of data set: biochemical. Conditions: for remaining activity at 10 µM: compound 10 μM, beta amyloid (1-42) 25 μM, 1 hr room temperature, beta amyloid alone (control) = 100. The procedure: The compounds of the present invention were assayed for inhibitory activity against the formation of beta amyloid fibrils as a function of ThT fluorescence intensity as follows. Beta amyloid (1-42) and each of the compounds of Examples 1 to 27 were dissolved in DMSO and diluted with PBS (phosphate-buffered saline, pH 7.4). The final concentrations of beta amyloid (1-42) (control) and each of the compounds of Examples 1 to 27 were set at 25 μM and 10 μM, respectively. The dilutions were incubated at room temperature for 1 hr before a solution of thioflavin T (ThT, 5 μM, pH 8.5) in glycin-NaOH buffer was added thereto. Fluorescence was measured at 450 nm for excitation (slit 10 nm) and […] for emission (slit 10 nm) on 96-well microplates using a multilabel fluorescence counter.

The subject of data set [6] is beta amyloid (1-42) injected mice. The experiment in a line: Water maze test, acute Alzheimer's disease model. Type of data set: in vivo. Conditions: mice injected with beta amyloid (1-42), Days 3 to 7. As for the experimental part:
as §1
In a water maze test, a mouse, when released from a randomly selected quadrant on each trial, was allowed to swim around the pool in search of an exit while the time taken to reach the platform (latency) was recorded.

The test system is the same in data set [7]. The experiment in a line: Behavior tests with acute AD model taken together (Y-maze, cognitive performance, passive avoidance). The data set is classed as in vivo. To be noted: data of Table 6, with statistical significance. As for the experimental part: as §1, §2
(§5) For the cognitive performance task, two identical substances were respectively placed 5 cm apart from two corners and the time it took for a mouse to investigate the given and new substances was measured. Investigation was defined as the condition in which a mouse sniffed with the head directing toward the substance within a diameter of 2 cm or touched the substance.
as §4

Data set [8] shares this test system. The experiment in a line: Cognitive performance task, acute Alzheimer's disease model. Type of data set: in vivo. The arrangement: Cognition % of control: concentration or dose not given beside the values. Conditions: for Cognition Preference (investigation time for new matter/total investigation time): mice i.c.v. injected with beta amyloid (1-42), test on Days 2 and 3; for Cognition % of control: preference relative to control mice. The procedure: as §1, §5

Chain of beta amyloid (1-42) (P05067 672-713 limits assumed): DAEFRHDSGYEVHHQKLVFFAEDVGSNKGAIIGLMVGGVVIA

For `COc1cc(/C=C/c2cc(/C=C/c3ccc(O)c(OC)c3)ncn2)ccc1O` [Ex. 6, (E,E)-4,6-bis(4′-hydroxy-3′-methoxystyryl)pyrimidine], the “Y-Maze Spontaneous Alternation (%)” value in data set [1] is 67.9%. The viability at 25 µM in data set [2] came to 103 ± 13%. Moreover, the “Cell Survival (%)” value in data set [3] worked out at 215.6 ± 3.5%. In data set [4], the “Passive Avoidance % of control” value was 78.1% and the “Passive Avoidance Latency” value is 139.2 s. The remaining activity at 10 µM in data set [5] stood at 20.7 ± 5.4%. Moreover, the “Spatial learning ability in water maze (latency over sessions), FIG. 1” value in data set [6] is “recover spatial learning ability”. Further, the “Memory and learning of beta amyloid (1-42) injected mice (in words)” value in data set [7] was “increased memory”. Further, the “Recovery of preference for the new matter” value in data set [8] (compared to beta amyloid (1-42) injected mice, % of control) is reported as “about 11%”. For the same compound, in data set [8], the “Cognition Preference (investigation time for new matter/total investigation time)” value worked out at 0.61 ± 0.03 and the “Cognition % of control” value is 95%.
Consider “Aβ1-42: beta amyloid peptide of 42 amino acids, injected intracerebroventricularly into mice to induce acute Alzheimer's disease [reference compound]”, for which the “Y-Maze Spontaneous Alternation (%)” value in data set [1] was determined as 61.6%. Besides, in data set [4], the “Passive Avoidance % of control” value amounted to 50.4% and the “Passive Avoidance Latency” value was found to be 89.9 s. In addition, the “Passive Avoidance % of control” value in data set [4] (listed as beta amyloid (1-42)) is “about 50%”. Further, the “Spatial learning ability in water maze (latency over sessions), FIG. 1” value in data set [6] is “deficient in spatial memory”. Besides, in data set [8] (beta amyloid (1-42) injected mice), the “Reduction of preference for the new matter compared to the control” value is “about 16%”. Besides, in data set [8], the “Cognition Preference (investigation time for new matter/total investigation time)” value is on record as 0.54 ± 0.02 and the “Cognition % of control” value came to 84%.
In the case of `CN(C)c1ccc(/C=C/c2cc(/C=C/c3ccc(N(C)C)c(O)c3)ncn2)cc1O` [Ex. 7, (E,E)-4,6-bis[3′-hydroxy-4′-(N,N-dimethylamino)styryl]pyrimidine], in data set [1], the “Y-Maze Spontaneous Alternation (%)” value is recorded as 67.0%. The viability at 25 µM in data set [2] was found to be 76.6 ± 12.1%. In addition, the “Cell Survival (%)” value in data set [3] worked out at 132.8 ± 41.1%. In data set [4], the “Passive Avoidance % of control” value worked out at 68.7% and the “Passive Avoidance Latency” value was 122.5 s. Moreover, in data set [5] (Table 3), the “Inhibitory activity against fibril formation (in words)” value is “remarkable inhibitory activity”. Further, in data set [5], the remaining activity at 10 µM amounted to 6.3 ± 1.8%. Further, the “Spatial learning ability in water maze (latency over sessions), FIG. 1” value in data set [6] is “recover spatial learning ability”. Further, the “Memory and learning of beta amyloid (1-42) injected mice (in words)” value in data set [7] is given as “increased memory”. Moreover, in data set [8], the “Cognition Preference (investigation time for new matter/total investigation time)” value worked out at 0.57 ± 0.02 and the “Cognition % of control” value was determined as 89%.
`CSc1nc(/C=C/c2cccc(O)c2)cc(/C=C/c2cccc(O)c2)n1` [Ex. 15, 2-methylthio-(E,E)-4,6-bis(3′-hydroxystyryl)pyrimidine]: the viability at 25 µM in data set [2] came out at 39.6 ± 0.4%. Further, in data set [3], the “Cell Survival (%)” value turned out to be 43.7 ± 6.6%. Moreover, the remaining activity at 10 µM in data set [5] was found to be 153 ± 16.3%.
For `CN(C)c1cc(/C=C/c2cccc(/C=C/c3ccc(O)c(N(C)C)c3)c2)ccc1O` [Ex. 20, (E,E)-1,3-bis[4′-hydroxy-3′-(N,N-dimethylamino)styryl]benzene], in that order: 45.8 ± 9.1%, 95.7 ± 8.3% and 36.1 ± 10.1%.
In the same order, the values of `CN(C)c1ccc(/C=C/c2cccc(/C=C/c3ccc(N(C)C)c(O)c3)c2)cc1O` [Ex. 21, (E,E)-1,3-bis[3′-hydroxy-4′-(N,N-dimethylamino)styryl]benzene] are 52.8 ± 7.2%, 100.8 ± 7.6% and 44 ± 8.3%.
For `CSc1nc(/C=C/c2ccc(O)cc2)cc(/C=C/c2ccc(O)cc2)n1` [Ex. 14, 2-methylthio-(E,E)-4,6-bis(4′-hydroxystyryl)pyrimidine], in data set [2], the viability at 25 µM amounted to 34.2 ± 4%. Further, in data set [3], the “Cell Survival (%)” value was 65.3 ± 6.0%. In data set [5], the remaining activity at 10 µM was 32.6 ± 7.4%.
Regarding `CN(C)c1cc(/C=C/c2cc(O)cc(/C=C/c3ccc(O)c(N(C)C)c3)c2)ccc1O` [Ex. 26, (E,E)-3,5-bis[4′-hydroxy-3′-(N,N-dimethylamino)styryl]phenol], the viability at 25 µM in data set [2] was determined as 47.4 ± 0.6%. Besides, in data set [3], the “Cell Survival (%)” value is given as 66.0 ± 12.1%. Moreover, the remaining activity at 10 µM in data set [5] was determined as 25.8 ± 5.8%.
For `Oc1cccc(/C=C/c2cc(O)cc(/C=C/c3cccc(O)c3)c2)c1` [Ex. 23, (E,E)-3,5-bis(3′-hydroxystyryl)phenol], in that order: 47.7 ± 11.1%, 59.2 ± 15.4% and 92.9 ± 12.4%.
For `COc1ccc(/C=C/c2cc(/C=C/c3ccc(OC)c(O)c3)nc(SC)n2)cc1O` [Ex. 17, 2-methylthio-(E,E)-4,6-bis(3′-hydroxy-4′-methoxystyryl)pyrimidine], in that order: 78.3 ± 0.4%, 78.8 ± 9.3% and 24.8 ± 11.1%.
For `COc1ccc(/C=C/c2cc(O)cc(/C=C/c3ccc(OC)c(O)c3)c2)cc1O` [Ex. 25, (E,E)-3,5-bis(3′-hydroxy-4′-methoxystyryl)phenol], in that order: 43.2 ± 10%, 73.5 ± 14.1% and 15.5 ± 3.8%.
On to `COc1nc(/C=C/c2cccc(O)c2)cc(/C=C/c2cccc(O)c2)n1` [Ex. 9, 2-methoxy-(E,E)-4,6-bis(3′-hydroxystyryl)pyrimidine], for which the viability at 25 µM in data set [2] came to 47.7 ± 3.3%. Also, in data set [3], the “Cell Survival (%)” value is reported as 45.9 ± 4.2%. Besides, the remaining activity at 10 µM in data set [5] was 129 ± 11.6%.
For `Oc1ccc(/C=C/c2cc(/C=C/c3ccc(O)cc3)ncn2)cc1` [Ex. 4, (E,E)-4,6-bis(4′-hydroxystyryl)pyrimidine], in that order: 81 ± 1.2%, 104.2 ± 7.1% and 35.7 ± 7%.
In the same order, the values of `CN(C)c1ccc(/C=C/c2cc(O)cc(/C=C/c3ccc(N(C)C)c(O)c3)c2)cc1O` [Ex. 27, (E,E)-3,5-bis[3′-hydroxy-4′-(N,N-dimethylamino)styryl]phenol] are 50.5 ± 3.9%, 64.4 ± 4.2% and 16.7 ± 0.7%.
